How the values were obtained:
[1] = system: WS mesenchymal precursor cells (WS hMPCs); assay: Senescence of WS hMPCs treated with KAT7 inhibitor; format: cell-based, human; conditions: 50 nM; passages 2-3 after treatment; DMSO control; FIGS. 6C-6D
Protocol: Passage-4 WS mesenchymal precursor cells (WS hMPCs) in example 1 were used as test cells, and the cells were treated with a DMSO solution of 50 nM of WM-3835. The WM-3835 (with a structural formula as shown in a of FIGS. 6A-6I) was synthesized by entrusting WuXi AppTec, and a DMSO solvent was used as a control.
After the treatment, the cells were continuously passaged to passages 2-3. The cells were collected to detect a KAT7 protein knockdown efficiency (FIG. 6B), and SA-β-gal staining of cell senescence markers and detection of a cell proliferation molecular marker (Ki67) were performed.

[2] = system: Human primary hepatocytes (hHEPs); assay: Senescence of human primary hepatocytes treated with KAT7 inhibitor; format: cell-based; conditions: 100 nM
Protocol: Human primary hepatocytes (hHEPs) were used as test cells (a product of Lonza, with an article No. of HUCPI), and the cells were treated with a DMSO solution of 100 nM of WM-3835, and DMSO was used as a control.

## Cc1cc(-c2ccccc2)cc(C(=O)NNS(=O)(=O)c2cccc(O)c2)c1F [WM-3835]
[1]
  senescence of WS hMPCs (SA-β-gal staining, Ki67): can delay the senescence of WS hMPCs
[2]; FIGS. 6E-6I
  expressions of inflammatory genes and SASP-associated genes (RNA-seq): down-regulated
  expressions of metabolism-related genes (RNA-seq): up-regulated
[2]; cultured 8 d, compared with DMSO group
  senescence of hepatocytes (P15, IL6 by RT-qPCR): significantly delay the senescence of hepatocytes
